ChEMBL document CHEMBL5120885, “Neopetrosins A-D and Haliclorensin D, Indole-C-Mannopyranosides and a Diamine Alkaloid Isolated from the South China Sea Marine Sponge Neopetrosia chaliniformis” (J Nat Prod, 2022)
Activity calls are given as the source filed them. No cut-off for these calls is given here.

Key:
Assay type in all cases: functional, organism-based
Danio rerio [1] = organism: Danio rerio; assay: Hepatoprotective activity in ethanol induced liver injury in transgenic zebrafish T3 (L- FABP:EGFP) model assessed as change in liver size at 20 uM incubated for 72 hrs by fluorescence microscopic analysis
Danio rerio [2] = organism: Danio rerio; assay: Hepatoprotective activity in isoniazid induced liver injury in transgenic zebrafish T3 (L- FABP:EGFP) model assessed as change in liver size at 20 uM incubated for 72 hrs by fluorescence microscopic analysis
Danio rerio [3] = organism: Danio rerio; assay: Hepatoprotective activity in ethanol induced liver injury in transgenic zebrafish T3 (L- FABP:EGFP) model assessed as change in liver size at 50 uM incubated for 72 hrs by fluorescence microscopic analysis
Danio rerio [4] = organism: Danio rerio; assay: Hepatoprotective activity in isoniazid induced liver injury in transgenic zebrafish T3 (L- FABP:EGFP) model assessed as change in liver size at 50 uM incubated for 72 hrs by fluorescence microscopic analysis

Compound	Activity (Danio rerio [1])	Activity (Danio rerio [2])	Activity (Danio rerio [3])	Activity (Danio rerio [4])
C[C@@H]1NC(=O)[C@H](Cc2c([C@H]3O[C@H](CO)[C@@H](O)[C@H](O)[C@@H]3O)[nH]c3ccccc23)NC1=O	Active	Active	–	–
O=C1O[C@H]2[C@@H](O)[C@H](O)[C@@H](CO)O[C@@H]2c2[nH]c3ccccc3c21	Active	Active	–	–
C[S+](CC[C@H](N)C(=O)[O-])C[C@H]1O[C@@H](n2cnc3c(N)ncnc32)[C@H](O)[C@@H]1O (stereo partly drawn)	–	–	Active	Active
NCC(=O)c1c([C@H]2O[C@H](CO)[C@@H](O)[C@H](O)[C@@H]2O)[nH]c2ccccc12	Active	Active	–	–
